Blank lines part the entries; values can stand above or below the compound they belong to.
Legend:
[1] = in vitro half-life in human blood; type: in vitro ADME
[2] = test system: HT-29 (human colon adenocarcinoma) cells; test: modified clonogenic assay, potentiation of chlorambucil cytotoxicity; type: cell-based; conditions: for DMF (dose modification factor), Diethyl ester / DMF of DEE: chlorambucil, mean ±S.D. of 2-3 experiments; for DMF (dose modification factor), Diethyl ester: dose tested 12.5 µM; for DMF of DEE: diethyl ester
Method: HT-29 (human colon adenocarcinoma) cells were obtained from Dr. Roberto Ceriani (Cancer Research Fund of Contra Costa County, Walnut Creek, CA) and were used in log phase of growth unless otherwise specified. Chlorambucil (CMB) was obtained from Sigma (St. Louis, MO) and was dissolved in 100% ethanol. All GST inhibitors were dissolved in ethanol, DMSO, or water just prior to use. The same amount of solvent added to culture medium served as the vehicle control.
In a modified clonogenic assay for cytotoxicity, cells were suspended at 2 x 10^5 cells/ml in serum-free medium in the presence of vehicle or inhibitor. […] Cells were incubated for 2 hours, then varying doses of CMB were added. At the end of a second 2-hour incubation, cells were diluted to 7.5-10 x 10^3/ml in serum-containing medium and plated in quadruplicate at 200 µl/well in Microtest III microtiter plates.
Plates were incubated for 6 days and assayed by a modified methylene blue method. Briefly, cells were fixed with 1.25% glutaraldehyde in PBS then stained with 0.05% methylene blue in distilled water. Plates were washed several times in distilled water to remove unretained dye and retained dye was resolubilized in 0.03 N HCl. Plates were read at 650 nm in a Molecular Devices Vmax plate reader (Molecular Devices, Redwood City, CA). […] A dose modification factor (DMF), a measure of potentiation of cytotoxicity, was calculated for each inhibitor by dividing the IC50 value of CMB without inhibitor treatment by the IC50 value for CMB with inhibitor treatment.

[3] = in vitro half-life / metabolism in mouse blood; type: in vitro ADME
[4] = test system: HT-29 cells; test: Cytosensor Microphysiometer acidification rates; type: cell-based, human; conditions: 4 hours pretreatment, TER199 20 µM, ethacrynic acid 50 µM
Method: The metabolic effects related to toxicity of the compounds of the invention on HT-29 cells, were tested using a Cytosensor Microphysiometer made by Molecular Devices, Inc., Menlo Park, CA and described in McConnell, H.M. et al. Science (1992) 257:1906-1912 and by Wada, H.G. et al. AATEX (1992) 1:154-164. Changes in pH of the culture medium are measured as a function of cellular metabolism. Acidification rates of the small volume of liquid flowing over the cells correlate with the number of live cells in the reaction chamber; a reduction of acidification rate reflects reduced numbers of surviving cells. […] The medium was then replaced with serum-free low buffer capacity medium and Microphysiometer analysis was initiated.

[5] = test system: HT4-1 tumors; test: potentiation of melphalan toxicity in vivo, implanted HT4-1 tumors; design: species or system Male scid mice; conditions: for tumor volume as a percentage of control tumor volume: seven days, when control tumors reached 1500 mm^3
Method: Male scid mice were subcutaneously implanted with HT4-1 tumors from donor mice. HT4-1 is a subclone of HT-29, a human colon cancer. When tumors reached approximately 100 mm^3, the mice were randomized into six treatment groups and treated for seven days as follows: • 1. 5 mg/kg melphalan; • 2. 10 mg/kg ethacrynic acid; • 3. […] 5 mg/kg melphalan + 10 mg/kg ethacrynic acid; • 5.
The mice were monitored for weight changes and tumor volumes were determined by measurement with calipers. The tumor growth was monitored until the average tumor size reached 1500 mm^3 for all groups except melphalan with ethacrynic acid.
The results were computed in terms of the tumor volume in the drug treated mice as a percentage of control tumor volume (i.e., in the group administered vehicle alone). In group 1, administered melphalan alone, the tumors were approximately 75% of the volume of controls. […] For group 4 administered a combination of melphalan and ethacrynic acid, the volumes were approximately 35% of control. […] (The volume measurements were taken at the time control tumors reached 1500 mm^3.)

[6] = test system: bone marrow GM-CFU; conditions: melphalan 10 mg/kg i.p. alone
[7] = target: T1, GST M2-2 (Homo sapiens, UniProt P28161); test: inhibition of GST isoenzyme M2-2 (Ki); type: biochemical; conditions: determined on unesterified form
T1 sequence (P28161 1-218): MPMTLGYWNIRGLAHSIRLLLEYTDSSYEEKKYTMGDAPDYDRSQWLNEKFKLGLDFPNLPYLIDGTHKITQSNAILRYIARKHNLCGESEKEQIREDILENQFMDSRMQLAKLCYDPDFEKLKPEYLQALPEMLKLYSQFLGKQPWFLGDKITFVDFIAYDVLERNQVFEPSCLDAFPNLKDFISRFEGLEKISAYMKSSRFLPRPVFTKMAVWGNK

[8] = target: T2, GST A1-1 (Homo sapiens, UniProt P08263); test: inhibition of GST isoenzyme A1-1 (Ki); type: biochemical; conditions: determined on unesterified form
T2 sequence (P08263 1-222): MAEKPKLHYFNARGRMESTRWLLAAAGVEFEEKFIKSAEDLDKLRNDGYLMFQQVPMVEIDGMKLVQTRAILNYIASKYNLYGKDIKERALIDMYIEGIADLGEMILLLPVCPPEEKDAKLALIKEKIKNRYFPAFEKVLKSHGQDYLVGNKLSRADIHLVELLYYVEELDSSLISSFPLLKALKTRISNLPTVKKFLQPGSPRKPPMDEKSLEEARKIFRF

[9] = target: Human GST P1-1 (Homo sapiens, UniProt P09211); test: inhibition of GST isoenzyme P1-1 (Ki); type: biochemical; conditions: for Ki: determined on unesterified form
[10] = test system: bone marrow GM-CFU; test: stimulation of bone marrow GM-CFU after administration to mice; type: in vivo, B6D2F1 mice; conditions: bone marrow harvested 24 hours after administering
Method: In an illustrative assay three B6D2F1 mice were treated with various doses of benzyl PG intraperitoneally.
Mice in the control group were injected with water or saline. Bone marrow cells were harvested 24 hours after drug treatment and added to alpha minimum essential medium (alpha MEM) supplemented with methylcellulose (0.8% w/v), fetal bovine serum (20% v/v), deionized BSA (1% w/v), Pokeweed mitogen-stimulated spleen-cell conditioned medium (PWM-SCCM)^1 (10% v/v) and gentamycin (50 Tg/ml). One ml aliquots were plated (four replicate plates) and incubated for seven days at 37 °C. […] Spleens were removed aseptically from four male B6D2F1 mice enforced through a 200 Tm wire mesh screen to obtain a single cell suspension. Ten ml of the suspension (2-4 X 10^7 cell/ml was added to 90 ml alpha-MEM supplemented with 1% deionized BSA, 50 Tg/ml gentamicin, 0.3% freshly reconstituted pokeweed antigen, 10 µM 2-mercaptoethanol. The mixture was incubated for 5 days at […] in a 5% CO2 atmosphere and the result-ing conditioned medium was centrifuged at 800g for ten minutes and filtered through a 0.22 Tm filter. Aliquots were kept frozen at […] until use.
Bone marrow was harvested 24 hours after administering the compounds and GM-CFU levels measured as described above.

[11] = target: T3, GST M1a-1a (Homo sapiens, UniProt P09488); test: inhibition of GST isoenzyme M1a-1a (Ki); type: biochemical; conditions: determined on unesterified form
T3 sequence (P09488 1-218): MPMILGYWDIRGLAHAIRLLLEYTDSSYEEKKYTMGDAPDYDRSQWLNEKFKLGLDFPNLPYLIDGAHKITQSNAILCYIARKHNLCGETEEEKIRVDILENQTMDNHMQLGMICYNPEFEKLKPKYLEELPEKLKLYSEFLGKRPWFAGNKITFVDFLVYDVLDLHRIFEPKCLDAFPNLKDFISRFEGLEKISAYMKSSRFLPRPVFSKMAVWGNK

Human GST P1-1, sequence (P09211 2-210 limits assumed): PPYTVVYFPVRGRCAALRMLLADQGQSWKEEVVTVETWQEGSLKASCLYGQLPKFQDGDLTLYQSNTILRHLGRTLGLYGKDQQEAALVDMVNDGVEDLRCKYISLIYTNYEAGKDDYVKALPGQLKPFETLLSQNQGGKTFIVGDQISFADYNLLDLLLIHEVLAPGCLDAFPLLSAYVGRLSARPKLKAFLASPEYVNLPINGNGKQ

Compound: C=C(CC)C(=O)c1ccc(OCC(=O)O)c(Cl)c1Cl [ethacrynic acid, reference compound]
effect on acidification rates, compound alone (Figure 2) ([4]; no chlorambucil): Neither γE-C(Bz)-ϕG diethylester (TER199) nor ethacrynic acid alone had any appreciable effect
effect of pretreatment on acidification rates with chlorambucil (Figure 2) ([4]; then 100 µM chlorambucil): potentiated the effect of chlorambucil
time until average tumor size reached 1500 mm^3 ([5]; 5 mg/kg melphalan + 10 mg/kg ethacrynic acid, volume not reached): > 72 days
tumor volume as a percentage of control tumor volume ([5]; group 4: 5 mg/kg melphalan + 10 mg/kg ethacrynic acid): approximately 35%

Compound: N[C@@H](Cc1ccc(N(CCCl)CCCl)cc1)C(=O)O [melphalan, reference compound]
GM-CFU remaining [6]: 2%
tumor volume as a percentage of control tumor volume ([5]; group 1: 5 mg/kg melphalan alone): approximately 75%

Compound: CCCCCCSC[C@H](NC(=O)CC[C@H](N)C(=O)OCC)C(=O)NC(C(=O)OCC)c1ccccc1 (some centres unmarked) [γE-C(Hx)-ϕG diethyl ester, γE-C(Hx)-ϕG]
DMF (dose modification factor), Diethyl ester ([2]; HT-29): 1.27±0.02
DMF of DEE [2]: 1.272

Now from value to compound, other results behind:

half-life, comparison of the three compounds [1]: approximately the same
half-life compared with TER199 [3]: longer half-lives than TER199
Compound: CCNC(=O)C(N)CCC(=O)NC(CSCc1ccccc1)C(=O)N[C@@H](C(=O)NCC)c1ccccc1 (stereo partly drawn) [TER278, γE ethyl amide-C(Bz)-R-(-)-ϕG ethyl amide]
DMF for chlorambucil toxicity ([2]; HT-29, 200 µM, single experiment): 1.0
ability to potentiate chlorambucil compared with TER199 ([2]; test system not stated): less able to potentiate chlorambucil
toxicity compared with TER199 ([2]; test system not stated): less toxic

Ki [7]: > 1000 µM
Ki [8]: > 1000 µM
Ki [9]: > 1000 µM
Ki [11]: > 1000 µM
Compound: γE-C(Bz) (S+)-fA [TER317]
effect on GM-CFU, analogs of TER199 (Figure 8) [10]: inactive

Ki [7]: 1.5 µM
Ki [8]: 4.2 µM
Ki [9]: 1.2 µM
Ki [11]: 0.01 µM
Compound: γE-C(naphthyl)-G [TER206]
DMF (dose modification factor), Diethyl ester ([2]; HT-29): 1.21±0.01
DMF of DEE [2]: 1.213
effect on GM-CFU, analogs of TER199 (Figure 8) [10]: inactive

Rank order ([9]; rank of Ki for Human GST P1-1): 3
Compound: γE-C(naphthyl)-G [TER211]
